Reference: patent US10640507B2, “PBD antibacterial agents” (KING'S COLLEGE LONDON, priority 2015, dated 2020)
In brackets after ≈: the same amount, converted by molar mass.

Columns and labels:
[1] = test system: EMRSA-15; experiment: General MIC protocol, Gram positive panel; type: cell-based
Description: (§1) General Minimum Inhibitory Concentration (MIC) Protocol
(§2) 1. Grow up cultures of bacterial strains to be tested overnight.
(§3) 2. Dilute down overnight cultures to concentration of 1×10^6 bacteria/ml (OD0.01) in Tryptic soy broth (TSB).
(§4) 3. Add 100 μl of TSB media to column 2-column 12 in 96 well plate (keeping column 1 clear).
(§5) 4. Make up compound to a concentration of 64 μg/ml in water (or alternatively to twice the chosen maximum concentration to be tested).
(§6) 5. Add 100 μl of antibiotic solution to the 1st and 2nd columns.
(§7) 6. Using a multichannel pipette take 100 μl from the 2nd column wells and pipette into 3rd column wells and repeat down the 96 well plate (remembering to include controls i.e. uninfected media and media with no antibiotic).
(§8) 7. To each well (except uninfected control row H) add 100 μl of bacterially infected media at a concentration of 1×10^6/ml.
(§9) 8. This dilutes down the concentration of the antibiotic by half (top dose is therefore 32 μg/ml in column 1) and also gives you a starting bacterial concentration of 5×10^5/ml.
(§10) 9. Wrap plate with parafilm to prevent evaporation.
(§11) 10. Leave at desired temperature (37° C. unless specified elsewhere) for 20 hours.
(§12) 11. Next day check plates for growth and measure optical density (i.e. absorbance) at a wavelength of 600 nm (OD600).
(§13) An example of such a plate is shown in FIG. 1 where column A represents wells that receive the top dose 100 μl; column B represents wells that receive the top dose 100 μl+100 μl TSB; and column C represents wells that receive 100 μl TSB. Row H which is marked by a box labelled D represents a blank where the cells receive no bacteria.

[2] = test system: methicillin sensitive S. aureus ATTC 9144 (NCTC 6571); experiment: General MIC protocol, Gram positive panel; type: cell-based; conditions: Staphylococcus aureus, MSSA / NCTC 6571; MSSA 9144
Description: as §1, §2, §3, §4, §5, §6, §7, §8, §9, §10, §11, §12, §13

[3] = test system: E. faecalis VRE NCTC 12201; experiment: General MIC protocol, Gram positive panel; type: cell-based
Description: as §1, §2, §3, §4, §5, §6, §7, §8, §9, §10, §11, §12, §13

[4] = test system: E. faecalis VSE NCTC 775; experiment: General MIC protocol, Gram positive panel; type: cell-based; conditions: Enterococcus faecalis, NCTC775; VSE 775
Description: as §1, §2, §3, §4, §5, §6, §7, §8, §9, §10, §11, §12, §13

[5] = test system: E. faecium VRE NCTC 12204; experiment: General MIC protocol, Gram positive panel; type: cell-based
Description: as §1, §2, §3, §4, §5, §6, §7, §8, §9, §10, §11, §12, §13

[6] = test system: EMRSA-16; experiment: General MIC protocol, Gram positive panel; type: cell-based
Description: as §1, §2, §3, §4, §5, §6, §7, §8, §9, §10, §11, §12, §13

[7] = test system: K. pneumonia NCTC 13368; experiment: General MIC protocol, Gram negative; type: cell-based
Description: as §1, §2, §3, §4, §5, §6, §7, §8, §9, §10, §11, §12, §13

[8] = test system: K. pneumonia M6; experiment: General MIC protocol, Gram negative; type: cell-based; conditions: Klebsiella pneumoniae; KP-M6
Description: as §1, §2, §3, §4, §5, §6, §7, §8, §9, §10, §11, §12, §13

[9] = test system: A. baumannii NCTC 17978; experiment: General MIC protocol, Gram negative; type: cell-based; conditions: Acinetobacter baumannii, NCTC17978
Description: as §1, §2, §3, §4, §5, §6, §7, §8, §9, §10, §11, §12, §13

[10] = test system: P. aeruginosa PA01; experiment: General MIC protocol, Gram negative; type: cell-based; conditions: Pseudomonas aeruginosa, PA01, PA01
Description: as §1, §2, §3, §4, §5, §6, §7, §8, §9, §10, §11, §12, §13

[11] = test system: P. aeruginosa NCTC 13437; experiment: General MIC protocol, Gram negative; type: cell-based; conditions: Pseudomonas aeruginosa, NCTC13437
Description: as §1, §2, §3, §4, §5, §6, §7, §8, §9, §10, §11, §12, §13

[12] = test system: A. baumannii AYE; experiment: General MIC protocol, Gram negative; type: cell-based; conditions: Acinetobacter baumannii
Description: as §1, §2, §3, §4, §5, §6, §7, §8, §9, §10, §11, §12, §13

[13] = test system: HeLa (Cervical cancer cell line); experiment: MTT cytotoxicity assay; type: cell-based; conditions: Homo sapiens, MTT, 24 h continuous exposure, read-out: IC50 HeLa (Cervical cancer cell line)
Description: (§14) Two immortalised human cell lines, HeLa and WI38 were used for cytotoxicity screening of the compounds. HeLa is a human cervical cancer cell line and WI38 is a normal healthy cell line. The cell lines were obtained from the American Type Culture Collection. The cell-lines were maintained in monolayer culture in 75 cm2 flasks (TPP, Switzerland) under a humidified 5% CO2 atmosphere at 37° C. The HeLa cell line was maintained in Dulbecco's Modified Eagles Media (DMEM; Invitrogen) supplemented with foetal bovine serum (10% v/v; Invitrogen), L-glutamine (2 mM; Invitrogen), non-essential amino acids (1×; Invitrogen) and Penicillin-Streptomycin (1% v/v, Invitrogen). For WI38, Eagle's Minimum Essential Medium, and Penicillin-Streptomycin (1% v/v, Invitrogen) and foetal bovine serum (10%, nvitrogen) was used. For passaging, cells were washed with phosphate buffered saline [PBS] (GIBCO 14040, Invitrogen, UK), incubated with trypsine (GIBCO 25300, Invitrogen, UK), and re-seeded into fresh medium. For seeding, cells were counted using a Neubauer haemocytometer (Assistant, Germany) by microscopy (Nikon, USA) on a non-adherent suspension of cells that were washed in PBS, trypsinised, centrifuged at 8° C. at 8000 rpm for 5 min and re-suspended in fresh medium.
(§15) The cells were grown in normal cell culture conditions at 37° C. under a 5% CO2 humidified atmosphere using appropriate medium. The cell count was adjusted to 10^5 cells/ml/ and 20,000 cells were added per well. The cells were incubated for 24 hours and 1 μl of the appropriate inhibitor concentrations were to the wells in triplicates. After 24 h of continuous exposure to each compound, the cytotoxicity was determined using the MIT (3-(4,5-Dimethylthiazol-2-yl)-2,5-diphenyltetrazolium bromide) (Lancaster Synthesis Ltd, UK) colorimetric assay. Absorbance was quantified by spectrophotometry at λ=570 nm (Envision Plate Reader, PerkinElmer, USA). IC50 values were calculated by a dose-response analysis using the Prism Graphpad Prism® software. The cytotoxicity results are shown below in Table 12.

[14] = test system: WI38 (Healthy cell line); experiment: MTT cytotoxicity assay; type: cell-based; conditions: Homo sapiens, WI-38; MTT; 24 h continuous exposure; highest concentration tested 20 μM; read-out: IC50 WI38 (Healthy cell line)
Description: as §14, §15

[15] = test system: Klebsiella KP 342; experiment: General MIC protocol, Gram negative; type: cell-based; conditions: Klebsiella, KP342
Description: as §1, §2, §3, §4, §5, §6, §7, §8, §9, §10, §11, §12, §13
The minimum inhibitory concentration (MIC) was measured using the general MIC protocol given above.

[16] = test system: K. pneumonia NCTC 13443; experiment: General MIC protocol, Gram negative; type: cell-based; conditions: K. pneumonia NCTC 13443
Description: as §1, §2, §3, §4, §5, §6, §7, §8, §9, §10, §11, §12, §13

[17] = test system: K. pneumonia NCTC 13438; experiment: General MIC protocol, Gram negative; type: cell-based; conditions: K. pneumonia NCTC 13438
Description: as §1, §2, §3, §4, §5, §6, §7, §8, §9, §10, §11, §12, §13

[18] = test system: K. pneumonia NCTC 13439; experiment: General MIC protocol, Gram negative; type: cell-based; conditions: K. pneumonia NCTC 13439
Description: as §1, §2, §3, §4, §5, §6, §7, §8, §9, §10, §11, §12, §13

[19] = test system: K. pneumonia MGH 78578; experiment: General MIC protocol, Gram negative; type: cell-based; conditions: K. pneumonia MGH 78578
Description: as §1, §2, §3, §4, §5, §6, §7, §8, §9, §10, §11, §12, §13

[20] = test system: K. pneumonia KP16; experiment: General MIC protocol, Gram negative; type: cell-based; conditions: K. pneumonia KP16
Description: as §1, §2, §3, §4, §5, §6, §7, §8, §9, §10, §11, §12, §13

[21] = test system: K. pneumonia NCTC 51851; experiment: General MIC protocol, Gram negative; type: cell-based; conditions: K. pneumonia NCTC 51851
Description: as §1, §2, §3, §4, §5, §6, §7, §8, §9, §10, §11, §12, §13

[22] = test system: resistant mutants of KP 13368; experiment: MIC following resistance development; type: cell-based, Klebsiella; conditions: KP 13368; following resistance development
Description: as §1, §2, §3, §4, §5, §6, §7, §8, §9, §10, §11, §12, §13
(§16) The MIC of PP-A418 and colistin against the strains used in the time kill analysis of Example 31 following resistance development were measured. The MIC was measured using the general MIC protocol given above. The results are given in Table 14 below where the MIC values of resistant mutants are shown in the brackets.

[23] = test system: resistant mutants of KP 13438; experiment: MIC following resistance development; type: cell-based, Klebsiella; conditions: KP 13438; following resistance development
Description: as §1, §2, §3, §4, §5, §6, §7, §8, §9, §10, §11, §12, §13, §16

[24] = test system: resistant mutants of KP 16; experiment: MIC following resistance development; type: cell-based, Klebsiella; conditions: KP 16; following resistance development
Description: as §1, §2, §3, §4, §5, §6, §7, §8, §9, §10, §11, §12, §13, §16

## CCN(CC)C(=O)c1cc2cc(NC(=O)c3cc(NC(=O)CCCOc4cc5c(cc4OC)C(=O)N4CCC[C@H]4C=N5)cn3C)ccc2s1 [PP-B28]
[1]
  MIC: 1 µg/mL (≈ 1.46 µM)
[2]
  MIC: 0.5 µg/mL (≈ 0.73 µM)
[3]
  MIC: 0.5 µg/mL (≈ 0.73 µM)
[4]
  MIC: 1 µg/mL (≈ 1.46 µM)
[5]
  MIC: 1 µg/mL (≈ 1.46 µM)
[6]
  MIC: 4 µg/mL (≈ 5.84 µM)
[7]; Klebsiella pneumoniae, NCTC13368
  MIC: 64 µg/mL (≈ 93.5 µM)
[8]
  MIC: 8 µg/mL (≈ 11.7 µM)
[9]
  MIC: 4 µg/mL (≈ 5.84 µM)
[10]
  MIC: 128 µg/mL (≈ 187 µM)
[11]
  MIC: 32 µg/mL (≈ 46.7 µM)
[12]
  MIC: 4 µg/mL (≈ 5.84 µM)
[13]
  IC50: > 20 µM
[14]
  IC50: > 20 µM

## colistin [reference compound]
[15]
  MIC: 4 µg/mL
[16]
  MIC: 2 µg/mL
[7]; KP NCTC 13368
  MIC: 4 µg/mL
[17]
  MIC: 2 µg/mL
[18]
  MIC: 4 µg/mL
[19]
  MIC: 8 µg/mL
[20]
  MIC: 2 to 4 µg/mL
[20]; listed as Collistin
  MIC: 1 µg/mL
[21]
  MIC: 64 µg/mL
[22]
  MIC of resistant mutants (in brackets): (32-64) μg/ml
[23]
  MIC of resistant mutants (in brackets): (64-128) μg/ml
[24]
  MIC of resistant mutants (in brackets): (64-128) μg/ml
